EP1227083A1, “3-AMINOPIPERIDINE DERIVATIVES AS INTEGRIN $g(a)v$g(b)3 ANTAGONISTS” (Meiji Seika Kaisha, Ltd., priority 1999, dated 2001)
“And” between values parts separate entries of the source, which are not always exact repeats. Equal entries are not always repeated. Where two headings read alike, the source gives them in different places.

Experiments:
[1] = target: GP IIb/IIIa (Homo sapiens, UniProt P05106+P08514); test: GP IIb/IIIa antagonistic activity (method of Pharmacological Test 2 in WO 94/21599); format: binding; conditions: read-out: IC50 (GP IIb/IIIa antagonistic activity)
Experimental: GP IIb/IIIa antagonistic activity was measured for compounds according to the present invention. The measurement of the GP IIb/IIIa antagonistic activity was carried out according to the method described in Pharmacological Test 2 in WO 94/21599.

[2] = target: T1, Integrin αvβ3 (vitronectin receptor) (Homo sapiens, UniProt P05106+P06756); test: αvβ3 Binding assay (vitronectin-vitronectin receptor binding assay)
T1 construct: a vitronectin receptor (protein content: 118 µg/ml) purified from the human placenta; from tissue; host or cells: human placenta
Experimental: Pharmacological Test Example 1: αvβ3 Binding assay
Integrin αvβ3 antagonistic activity of compounds according to the present invention was measured in a vitronectin-vitronectin receptor binding assay system in accordance with the method of Kouns et al. (W. C. Kouns, D. Kirchhofer, P. Hadvary, A. Edenhofer, T. Weller, G. Pfenninger, H. R. Baumgartner, L. K. Jennings and B. Steiner, Blood, 80, 2539-2547 (1992)).
Specifically, a vitronectin receptor (protein content: 118 µg/ml) purified from the human placenta in accordance with the method of Pytela et al. (R. Pytela, M. D. Pierschbacher, S. Argraves, S. Suzuki, and E. Ruoslahti, Method in Enzymology, 144, 475-489 (1987)) was diluted 50 times with TBS (20 mM Tris-HCl, 150 mM NaCl, 1 mM CaCl2, 1 mM MgCl2, pH 7.4), and distributed and coated on wells (50 µl/well) of a plate (Maxisorp, Nunc, 96 well Immuno Plate). The plate was then allowed to stand at 4°C for one day, washed twice with TBS (200 µl/well), and then subjected to blocking with TBS (150 µl/well) containing 1% bovine serum albumin (SIGMA) at 4°C overnight. After washing twice with TBS (200 µl/well), 50 µl of vitronectin (CALBIOCHEM) adjusted to 0.2 µg/ml by the addition of TBS (TBS-Tween) containing 0.01% Tween-20 was mixed with 50 µl of each test compound adjusted to each concentration in wells, and a reaction was allowed to proceed at room temperature for 4 hr. After the completion of the reaction, the wells were washed three times with TBS-Tween. A solution prepared by diluting anti-vitronectin rabbit antiserum (CHEMICON) 500 times with TBS-Tween was added as a primary antibody in an amount of 50 µl/well, and a reaction was allowed to proceed at room temperature for 1.5 hr. After washing three times with 200 µl/well of TBS-Tween, a peroxidase (POD)-labeled anti-rabbit IgG antibody solution (CAPPEL) diluted 500 times with TBS-Tween was added as a secondary antibody in an amount of 50 µl/well, and a reaction was allowed to proceed at room temperature for 1.5 hr. After washing three times with TBS-Tween (200 µl/well), ABTS (2,2'-azino-bis(3-ethylbenzthiazoline-6-sulfonic acid), SIGMA) was adjusted to 1 mg/ml by the addition of a ten-fold diluted POD-buffer (ZYMED), and was added in an amount of 50 µl/well, and a reaction was allowed to proceed for 5 to 10 min. A 0.1 M citric acid buffer (pH 4.3) containing 0.05% NaN3 was added in an amount of 50 µl/well to stop the reaction, followed by the measurement of the absorbance at 415 nm with a microplate reader (MTP 32, Corona Electric) (reference: 675 nm). The total binding was defined as the absorbance after a reaction using 50 µl of TBS-Tween instead of the test compound, and the non-specific binding (100% inhibition) was defined as the absorbance after a reaction using 50 µl of TBS-Tween containing 2 x 10^-3 M RGDS. The inhibition was calculated by the following equation: Inhibition (%) = 100-((absorbance in the presence of test compound - non-specific binding))/((total binding - non-specific binding))× 100 [formula]
IC50 was determined from a primary regression line of the logarithm of each concentration of the test compound and the logarithm of (100 - inhibition)/inhibition.

[3] = Oral absorption in rats; format: in vivo; conditions: data not shown
[4] = test system: human platelet aggregation; test: Human platelet aggregation inhibitory activity (method of Pharmacological Test 1 in WO 94/21599); format: cell-based
Experimental: Human platelet aggregation inhibitory activity was measured for compounds according to the present invention. The measurement of the human platelet aggregation inhibitory activity was carried out according to the method described in Pharmacological Test 1 in WO 94/21599.

[5] = test system: human vascular smooth muscle cells; test: Inhibitory activity against adhesion of human vascular smooth muscle cells to vitronectin; format: cell-based; conditions: immobilized human vitronectin
Experimental: Pharmacological Test Example 3: Inhibitory activity against adhesion of human vascular smooth muscle cells to vitronectin
The adhesion of human vascular smooth muscle cells to immobilized human vitronectin was measured in accordance with the method of Liaw et al. (Liaw L, Almeida M, Hart CE, Schwartz SM, and Giachelli CM, Circulation Research, 74 (2), 214-224 (1994)).
A Dulbecco's phosphate buffer (Dulbecco's PBS(-), Nissui Pharmaceutical Co., Ltd.) solution of human plasma-derived vitronectin (CALBIOCHEM) adjusted to a concentration of 4 µg/ml was first added to wells (50 µl/well) of a microplate (Maxisorp, Nunc), and a reaction for immobilization was allowed to proceed at 4°C overnight. […]
Next, 50 µl of a Dulbecco's modified Eagle's basal medium containing 0.1% of bovine serum albumin with a medicament added thereto was added to the wells of the human vitronectin-coated assay microplate, followed by pre-cultivation under 5% carbon dioxide at 37°C for 10 min. […] The absorbance of the microplate thus obtained was measured at 595 nm. […] The inhibition was calculated by the following equation. IC50 was determined from a primary regression line of the logarithm of each concentration of the test compound and the logarithm of (100 - inhibition)/inhibition. […]

[6] = read-out: IC50 (integrin αvβ3 antagonistic activity); vitronectin binding to vitronectin receptor purified from the human placenta
[7] = vitronectin binding to vitronectin receptor purified from the human placenta; read-out: IC50 (integrin αvβ3 antagonistic activity)

Sequence of GP IIb/IIIa (P08514 32-887 limits assumed): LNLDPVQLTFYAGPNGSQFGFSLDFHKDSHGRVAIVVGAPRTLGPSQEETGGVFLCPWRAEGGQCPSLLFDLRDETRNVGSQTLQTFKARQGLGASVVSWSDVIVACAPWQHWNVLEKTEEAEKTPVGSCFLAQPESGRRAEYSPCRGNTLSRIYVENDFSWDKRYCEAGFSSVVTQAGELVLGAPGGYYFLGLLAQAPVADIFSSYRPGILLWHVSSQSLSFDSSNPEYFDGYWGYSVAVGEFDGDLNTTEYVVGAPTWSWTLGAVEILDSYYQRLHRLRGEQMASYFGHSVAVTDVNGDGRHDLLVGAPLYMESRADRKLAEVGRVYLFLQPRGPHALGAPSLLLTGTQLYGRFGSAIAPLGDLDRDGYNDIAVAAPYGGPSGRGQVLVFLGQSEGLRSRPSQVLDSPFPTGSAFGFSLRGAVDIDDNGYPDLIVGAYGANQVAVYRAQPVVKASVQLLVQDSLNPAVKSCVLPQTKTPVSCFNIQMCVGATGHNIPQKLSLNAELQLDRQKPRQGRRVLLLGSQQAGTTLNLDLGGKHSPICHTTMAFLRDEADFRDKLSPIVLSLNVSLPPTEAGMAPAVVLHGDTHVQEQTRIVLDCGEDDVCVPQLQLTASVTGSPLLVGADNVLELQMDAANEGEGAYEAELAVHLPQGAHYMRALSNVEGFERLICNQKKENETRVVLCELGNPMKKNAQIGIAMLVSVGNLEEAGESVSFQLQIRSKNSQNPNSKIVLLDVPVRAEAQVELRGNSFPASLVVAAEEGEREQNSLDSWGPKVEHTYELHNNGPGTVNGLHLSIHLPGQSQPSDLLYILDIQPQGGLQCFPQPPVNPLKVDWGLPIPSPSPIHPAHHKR
Sequence of GP IIb/IIIa (P08514 891-1039 partner limits assumed): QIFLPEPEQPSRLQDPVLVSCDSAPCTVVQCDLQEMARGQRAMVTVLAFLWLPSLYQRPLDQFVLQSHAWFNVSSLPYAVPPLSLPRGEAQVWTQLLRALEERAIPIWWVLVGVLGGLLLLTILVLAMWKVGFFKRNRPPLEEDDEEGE
Sequence of GP IIb/IIIa (P05106 27-788): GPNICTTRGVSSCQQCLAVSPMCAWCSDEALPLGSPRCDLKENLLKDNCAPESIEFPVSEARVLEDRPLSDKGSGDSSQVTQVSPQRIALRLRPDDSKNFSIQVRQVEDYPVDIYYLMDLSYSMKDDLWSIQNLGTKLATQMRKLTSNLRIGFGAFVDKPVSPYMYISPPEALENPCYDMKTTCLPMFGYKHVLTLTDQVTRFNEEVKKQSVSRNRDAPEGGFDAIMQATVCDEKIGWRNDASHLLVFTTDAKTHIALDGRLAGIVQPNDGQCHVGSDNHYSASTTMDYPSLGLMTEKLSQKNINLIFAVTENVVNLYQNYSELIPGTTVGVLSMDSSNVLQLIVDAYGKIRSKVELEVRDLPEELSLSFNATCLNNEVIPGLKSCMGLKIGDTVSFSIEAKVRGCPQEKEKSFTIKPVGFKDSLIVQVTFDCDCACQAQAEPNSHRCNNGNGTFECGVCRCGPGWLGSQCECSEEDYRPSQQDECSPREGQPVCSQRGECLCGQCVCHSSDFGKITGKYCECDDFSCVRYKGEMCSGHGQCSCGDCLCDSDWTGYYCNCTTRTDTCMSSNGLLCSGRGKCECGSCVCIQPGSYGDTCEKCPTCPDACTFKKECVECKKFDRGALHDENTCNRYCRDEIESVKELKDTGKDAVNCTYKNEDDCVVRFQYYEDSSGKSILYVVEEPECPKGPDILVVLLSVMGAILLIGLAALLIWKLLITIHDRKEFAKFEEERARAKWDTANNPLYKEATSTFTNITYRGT
T1 sequence (P06756 31-889 limits assumed): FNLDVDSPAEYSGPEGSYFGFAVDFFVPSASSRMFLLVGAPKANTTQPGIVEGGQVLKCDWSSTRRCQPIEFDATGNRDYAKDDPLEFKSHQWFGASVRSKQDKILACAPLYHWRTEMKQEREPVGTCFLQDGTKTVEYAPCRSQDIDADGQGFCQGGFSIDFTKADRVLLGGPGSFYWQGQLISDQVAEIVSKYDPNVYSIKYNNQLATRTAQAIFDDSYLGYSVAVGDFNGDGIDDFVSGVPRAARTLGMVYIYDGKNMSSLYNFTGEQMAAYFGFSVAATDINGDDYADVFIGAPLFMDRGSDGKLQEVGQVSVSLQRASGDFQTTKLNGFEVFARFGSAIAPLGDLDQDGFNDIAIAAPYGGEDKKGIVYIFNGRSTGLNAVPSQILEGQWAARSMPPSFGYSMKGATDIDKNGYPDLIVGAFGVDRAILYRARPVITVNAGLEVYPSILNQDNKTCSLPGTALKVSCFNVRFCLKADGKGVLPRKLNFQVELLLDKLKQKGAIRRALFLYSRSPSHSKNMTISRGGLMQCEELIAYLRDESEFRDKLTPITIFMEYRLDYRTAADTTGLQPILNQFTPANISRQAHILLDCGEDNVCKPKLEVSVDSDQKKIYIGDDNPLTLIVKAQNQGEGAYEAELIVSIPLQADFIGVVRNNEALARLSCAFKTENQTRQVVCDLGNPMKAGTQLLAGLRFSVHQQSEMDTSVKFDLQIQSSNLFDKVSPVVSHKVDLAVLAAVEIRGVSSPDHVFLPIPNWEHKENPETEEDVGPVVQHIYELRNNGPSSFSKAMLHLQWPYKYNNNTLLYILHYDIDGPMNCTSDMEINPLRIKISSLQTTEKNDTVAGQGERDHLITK
T1 sequence (P06756 891-1048 partner limits assumed): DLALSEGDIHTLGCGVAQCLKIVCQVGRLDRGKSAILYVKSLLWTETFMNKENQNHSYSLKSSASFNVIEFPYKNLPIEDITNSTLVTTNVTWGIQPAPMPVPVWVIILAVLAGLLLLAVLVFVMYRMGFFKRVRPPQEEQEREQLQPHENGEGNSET
T1 sequence (P05106 27-788): as the sequence (P05106 27-788) above

| Compound | IC50 [1] | also measured |
| --- | --- | --- |
| O=C(NC[C@H](NS(=O)(=O)c1ccccc1)C(=O)O)c1ccc(N2CCCC(Nc3ncccn3)C2)cc1 (stereo partly drawn) [Example 2, (2S)-Benzenesulfonylamino-3-[4-{3-(pyrimidin-2-ylamino)piperidin-1-yl}benzoylamino]propionic acid] | ≤ 1.1 nM | – |
| O=C(NC[C@H](NS(=O)(=O)c1ccccc1)C(=O)O)c1ccc(N2CCCC(NC3=NCCCN3)C2)cc1 (stereo partly drawn) [Example 3, (2S)-Benzenesulfonylamino-3-[4-{3-(1,4,5,6-tetrahydropyrimidin-2-ylamino)piperidin-1-yl}benzoylamino]propionic acid] | ≤ 1.1 nM | IC50 [2, 6]: ≤ 1 nM |
| O=C(NC[C@H](NS(=O)(=O)c1ccccc1)C(=O)O)c1ccc(N2CCC[C@H](Nc3ncccn3)C2)c(F)c1 [Example 5, (2S)-Benzenesulfonylamino-3-[3-fluoro-4-{(3S)-(pyrimidin-2-ylamino)piperidin-1-yl}benzoylamino]-propionic acid] | – | oral absorption [3]: had oral absorption |
| O=C(NC[C@H](NS(=O)(=O)c1ccccc1)C(=O)O)c1ccc(N2CCC[C@H](NC3=NCCCN3)C2)c(F)c1 [Example 6, (2S)-Benzenesulfonylamino-3-[3-fluoro-4-{(3S)-(1,4,5,6-tetrahydropyrimidin-2-ylamino)piperidin-1-yl}benzoylamino]propionic acid] | ≤ 1.1 nM and 1.1 nM | – |
| O=C(NC[C@H](NS(=O)(=O)c1ccccc1)C(=O)O)c1ccc(N2CCC[C@@H](NC3=NCCCN3)C2)c(F)c1 [Example 9, (2S)-Benzenesulfonylamino-3-[3-fluoro-4-{(3R)-(1,4,5,6-tetrahydropyrimidin-2-ylamino)piperidin1-yl}benzoylamino]propionic acid] | ≤ 1.1 nM | – |
| O=C(NC[C@H](NS(=O)(=O)c1ccccc1)C(=O)O)c1ccc(N2CCC[C@H](NC3=NCCCN3)C2)c(F)c1F [Example 19, (2S)-Benzenesulfonylamino-3-[2,3-difluoro-4-{(3S)-(1,4,5,6-tetrahydropyrimidin-2-ylamino)piperidin-1-yl}benzoylamino]propionic acid] | ≤ 1.1 nM | IC50 [2, 6]: ≤ 1 nM |
| O=C(NC[C@H](NS(=O)(=O)c1ccccc1)C(=O)O)c1ccc(N2CCC[C@H](NC3=NCCCN3)C2)c(Cl)c1 [Example 22, (2S)-Benzenesulfonylamino-3-[3-chloro-4-{(3S)-(1,4,5,6-tetrahydropyrimidin-2-ylamino)piperidin-1-yl}benzoylamino]propionic acid] | ≤ 1.1 nM | – |
| O=C(NC[C@H](NS(=O)(=O)c1ccccc1)C(=O)O)c1ccc(N2CCC[C@H](N=C3NCCCN3)C2)cc1 [Example 25, (2S)-Benzenesulfonylamino-3-[4-{(3S)-(1,4,5,6-tetrahydropyrimidin-2-ylamino)piperidin-1-yl}benzoylamino]propionic acid] | ≤ 1.1 nM | IC50 [4]: 56 nM; IC50 [2, 7]: ≤ 1 nM |
| O=C(NC[C@H](NS(=O)(=O)c1ccccc1)C(=O)O)c1ccc(N2CCC[C@H](Nc3ccccn3)C2)cc1 [Example 27, (2S) -Benzenesulfonylamino-3-[4-{(3S)-(pyridin-2-ylamino)piperidin-1-yl}-benzoylamino]propionic acid] | ≤ 1.1 nM | IC50 [2, 6]: ≤ 1 nM |
| O=C(NC[C@H](NS(=O)(=O)c1ccccc1)C(=O)O)c1ccc(N2CCC[C@H](N=C3NCCCN3)C2)cc1F [Example 30, (2S)-Benzenesulfonylamino-3-[2-fluoro-4-{(3S)-(1,4,5,6-tetrahydropyrimidin-2-ylamino)piperidin-1-yl}benzoylamino]propionic acid] | ≤ 1.1 nM | IC50 [5]: 13 nM; IC50 [2, 7]: ≤ 1 nM |
| O=C(NC[C@H](NS(=O)(=O)c1cccs1)C(=O)O)c1ccc(N2CCC[C@H](N=C3NCCCN3)C2)cc1 [Example 44, 3-[4-{(3S)-(1,4,5,6-Tetrahydropyrimidin-2-ylamino)piperidin-1-yl}benzoylamino]-(2S)-{(thiophene-2-sulfonyl)amino}propionic acid] | ≤ 1.1 nM | IC50 [2, 7]: ≤ 1 nM |
